Source: PMC7179450, “Primary Human Hepatocytes, But not HepG2 or Balb/c 3T3 Cells, Efficiently Metabolize Salinomycin and Are Resistant to Its Cytotoxicity” (Molecules, 2020)
Where two headings read alike, the source gives them in different places.

What was measured:
[1] = test system: primary human hepatocytes (PHH); assay: MTT assay, cytotoxicity in primary human hepatocytes; format: cell-based; settings: Hepatocyte, mean ± SEM, n = 3, read-out: EC50 (effective concentration)
Experimental: (§1) Cryopreserved PHH were purchased from the Primacyt GmbH (Schwerin, Germany). Two different lots were chosen based on CYP activity. The donor was a person. The post-thaw viability was 94.6% for lot HH160531 (used in two repetitions) and 85.0% for lot HH130805. The initial cell viability was determined with the trypan blue exclusion test. The cells were thawed and purified using the Plating and Thawing Kit (Primacyt GmbH). Purified hepatocytes were resuspended in Hepatocyte Plating Medium (Primacyt GmbH) and seeded on collagen-coated 96-well plates at a density of 9 × 10^5 cell/mL and incubated at 37 °C with 5% CO2. After 6 h of incubation, the medium was removed and the cells were washed with PBS. Then Human Hepatocyte Maintenance Medium (HHMM) (Primacyt GmbH) with the studied drugs was added to hepatocytes (100 µL/well). […]
The concentration ranges of the drugs were chosen according to their solubility and their plasma level. […] The cytotoxicity was assessed after 24 and 48 h of exposure of cell lines or after 12 and 24 h exposure of PHH. […]
The metabolic activity of living cells was assessed by measuring the activity of dehydrogenases. […] The plate was shaken for 15 min at room temperature and transferred to a microplate reader to measure the absorbance at 570 nm, using a blank as a reference. Cytotoxicity was expressed as a percentage of the negative control (0.1% or 0.2% DMSO).

[2] = test system: primary human hepatocytes (PHH); assay: Biotransformation of SAL and metabolites in medium of PHH (LC-MS/MS); format: in vitro ADME
Experimental: as §1, with “PBS.” for “PBS. Then Human Hepatocyte Maintenance Medium (HHMM) (Primacyt GmbH) with the studied drugs was added to hepatocytes (100 µL/well).”
(§2) The medium samples from microplate wells were collected for identifying SAL metabolites and normalized to a cell number. An aliquot of 200 µL of each sample was measured to Eppendorf tube. […] The dry residue was reconstituted in 50% acetonitrile and analyzed with LC-MS/MS. […]
(§3) SAL (m/z 773.4 to m/z 431.3) was monitored in multiple reaction monitoring (MRM) modes. […]
(§4) The signals for further analysis were selected with the LightSight 2.3 software. […] These MRM transitions (with 20 chromatographic peaks) were then quantified with Multiquant 2.1. software. Quantitative analysis was performed for SAL. […]

Balb/c 3T3 fibroblasts = assay: Biotransformation of SAL and metabolites in Balb/c 3T3 fibroblasts (LC-MS/MS); format: in vitro ADME, mouse; settings: 24 h (Figure 2B)
Experimental: The HepG2 cell line was purchased from the American Type Culture Collection (ATCC® HB-8065™). The cells were cultured in Minimum Essential Medium Eagle (MEME) (Sigma–Aldrich Co. (St. Louis, MO, USA)). Normal murine embryonic fibroblasts, Balb/c 3T3 clone A31 cell line (gift from Department of Swine Diseases of the National Veterinary Research Institute in Pulawy) was cultured in Dulbecco’s Modified Eagle’s Medium (DMEM) (Invitrogen Corporations (Paisley, UK)). The media were supplemented with 10% BCS (Balb/c 3T3), 10% FBS (HepG2), 1% L-glutamine, and 1% antibiotic solution. The cells were maintained in 75 cm^2 cell culture flasks in humidified incubator at 37 °C, in an atmosphere of 5% CO2. […] The initial cell viability was determined with the trypan blue exclusion test. […]
as §2, §3, §4

rabbits = settings: cited from earlier work
[3] = mouse, in vivo; cited from earlier work
[4] = rat, in vivo; cited from earlier work
[5] = in vivo; cited from earlier work

CC[C@@H](C(=O)[C@@H](C)[C@@H](O)[C@H](C)[C@@H]1O[C@@H]([C@@H](CC)C(=O)O)CC[C@@H]1C)[C@H]1O[C@]2(C=C[C@@H](O)[C@]3(CC[C@@](C)([C@H]4CC[C@](O)(CC)[C@H](C)O4)O3)O2)[C@H](C)C[C@@H]1C [SAL, salinomycin]
EC50 ([1]; 12 h exposure): > 25 µg/mL | EC50 ([1]; 24 h exposure): > 25 µg/mL | SAL metabolised, share of the dose ([2]; PHH): up to 90% | maximum percentage of bio-transformed SAL ([2]; PHH co-exposed with tiamulin): 25% | biotransformation of SAL (Balb/c 3T3 fibroblasts): no biotransformation | LD50 (rabbits): 21 mg/kg b.w. | unchanged SAL in excreta, share of administered dose [3]: 2% | unchanged SAL in excreta, share of administered dose [4]: 2% | unchanged SAL in excreta, share of administered dose [5]: 2%
